Measured values reported in PMC9501232, “Novel 4-Azapregnene Derivatives as Potential Anticancer Agents: Synthesis, Antiproliferative Activity and Molecular Docking Studies” (Molecules, 2022).

How the values were obtained:
PC-3 cells = experiment: MTT cell proliferation assay, PC-3; type: cell-based, human; details: PC-3, 30 µM, 72 h, average ± SD
Experimental: (§1) Cell lines, namely LNCaP, PC-3, T47-D and NHDF were obtained from American Type Culture Collection (ATCC; Manassas, VA, USA) and cultured in 75 cm^2 culture flasks at 37 °C in a humidified air incubator with 5% CO2. LNCaP, PC-3 and T47-D cells, which were used in passages 20th to 27th, 25th to 29th and 10th to 15th, respectively, were cultured in RPMI 1640 medium (Sigma-Aldrich, Inc., St. Louis, MO, USA) with 10% fetal bovine serum (FBS; Sigma-Aldrich, Inc. St. Louis, MO, USA) and 1% of the antibiotic mixture of 10,000 IU/mL penicillin G and […] of streptomycin (Sp, Sigma-Aldrich, Inc. St. Louis, MO, USA). Finally, NHDF cells (Normal Human Dermal Fibroblasts) were cultured in RPMI 1640 medium supplemented with 10% FBS, 2 mM L-glutamine, 10 mM HEPES, 1 mM sodium pyruvate and 1% of an antibiotic/antimycotic mixture (10,000 U/mL penicillin G, 100 mg/mL streptomycin and 25 µg/mL amphotericin B) (Ab; Sigma-Aldrich, Inc. St. Louis, MO, USA), and these cells were used in passages 10 to 12. For all cell types, the medium was renewed every 2–3 days until cells reach nearly the confluence state. Then, they were detached gently by trypsinization (trypsin-EDTA solution: 0.125 g/L of trypsin and 0.02 g/L of EDTA).
(§2) All the stock solutions were prepared by dissolving compounds in dimethyl sulfoxide (DMSO; Sigma-Aldrich, Inc., St. Louis, MO, USA) at 10 mM and stored at 4 °C. From these solutions, the several diluted compounds solutions in different concentrations were freshly prepared in a complete culture medium before each experiment.
(§3) As previously referred, cells were trypsinized after reaching a near confluence state and counted by the trypan blue exclusion assay in a Neubauer chamber. Then, 100 µL of cell suspension/well with an initial density of 2 × 10^4 cells/mL were seeded in 96-well culture plates (Nunc, Apogent, Denmark) and left to adhere for 48 h. After cells adherence, the medium was replaced by the distinct solutions of the compounds in the study (30 µM for preliminary studies and 0.01, 0.1, 1, 10, 50 and 100 µM for concentration–response studies) in the appropriate medium for approximately 72 h. 5-FU and finasteride were used as positive controls and untreated cells were used as the negative control. Each experiment was performed in quadruplicate and independently performed at least two times. The in vitro antiproliferative effects were evaluated by the MTT assay (Sigma-Aldrich, Inc. St. Louis, USA). After the incubation period, the medium was removed and 100 µL of phosphate buffer saline (NaCl 137 mM, KCl 2.7 mM, Na2HPO4 10 mM and KH2PO4 1.8 mM in deionized water and pH adjusted to 7.4) were used to wash the cells. Then, 100 µL of the MTT solution (5 mg/mL) was prepared in the appropriate serum-free medium and was added to each well, followed by incubation for 4 h at 37 °C. Hereafter, the MTT containing medium was removed and the formazan crystals were dissolved in DMSO. Then the absorbance was measured at 570 nm using a microplate spectrophotometer BIO-RAD xMarkTM. Cell viability values were expressed as percentages relative to the absorbance determined in the cells used as negative controls.
(§4) The data are expressed as a mean ± standard deviation (SD) and differences between groups were considered statistically significant when p < 0.05. The IC50 values were determined through sigmoidal fitting analysis with variable slope and considering a 95% confidence level. All data shown are representative of at least two independent experiments.

LNCaP cells [1] = experiment: MTT cell proliferation assay, LNCaP; type: cell-based, human; details: 30 µM, 72 h, average ± SD
Experimental: as §1, §2, §3, §4

T47-D cells = experiment: MTT cell proliferation assay, T47-D; type: cell-based, human; details: 30 µM, 72 h, average ± SD
Experimental: as §1, §2, §3, §4

LNCaP cells [2] = experiment: Microscopic cell morphology observation; type: cell-based, human; details: 24 and 72 h of treatment
Experimental: In our previous work, 16E-arylidene-4-azaandrost-5-ene derivatives were synthesized, their antiproliferative effects were evaluated and further studies were performed with the most promising steroid in LNCaP cells. Due to the similarity of 16E-arylidene-4-azaandrostenes and these novel 21E-arylidene-4-azapregnene derivatives, identical studies in this cell line were performed, namely a flow cytometry assay and microscopic cell morphology observation. To assess the viability of LNCaP cells when exposed to steroid 3g, a flow cytometry assay after PI staining was performed. Cells were treated with 3g and 5-FU during 24 and 72 h, and then a microscopic cell observation was performed to assess the possible morphological alterations and cell density changes triggered by incubation with 3g and compare with controls (Figure 6).
Similar to the previous study, the analysis of cell viability was accomplished by flow cytometry after staining dead cells with propidium iodide (PI; Invitrogen, Carlsbad, USA). Succinctly, 1 mL of a cell suspension was seeded in 12-well culture plates (initial cell density of 5 × 10^4 cells/mL of LNCaP cells for 24 h assay and 2 × 10^4 cells/mL of the same cell line for 72 h assay) in a complete culture medium. […] The percentages of each region were calculated for a total of R1 + R2 + R3. […]

[3] = tested on: NHDF cells (Normal Human Dermal Fibroblasts); experiment: MTT cell proliferation assay, NHDF; type: cell-based; details: 30 µM, 72 h, average ± SD
Experimental: as §1, §2, §3, §4

## CC(C)(C)NC(=O)[C@H]1CC[C@H]2[C@@H]3CC[C@H]4NC(=O)C=C[C@]4(C)[C@H]3CC[C@]12C [Finasteride, reference compound]
PC-3 cells
  MTT screening, cell proliferation: 78.8 ± 8.7 percentage of negative control
LNCaP cells [1]
  MTT screening, cell proliferation: 88.5 ± 2.4 percentage of negative control
T47-D cells
  MTT screening, cell proliferation: 103.5 ± 17.8 percentage of negative control
LNCaP cells [2]
  Cell morphology and cell density: cell density reduction and the preservation of healthy cells morphology
[3]
  MTT screening, cell proliferation: 62.8 ± 5.9 percentage of negative control
